Where a SMILES comes first, the peptide text is derived from it. The star is where a group is joined. C16 diacid = O=C(O)CCCCCCCCCCCCCCC(=O)*
Legend:
Format in all cases: cell-based
human GIP receptor [1] = biological target: T1, human GIP receptor (Homo sapiens, UniProt P48546); assay: cAMP antagonism (CisBio cAMP Dynamic 2 HTRF assay); design: pCMV-Script vector; settings: Table 1C, CisBio, HEK-293 cells
T1 sequence (P48546 22-466): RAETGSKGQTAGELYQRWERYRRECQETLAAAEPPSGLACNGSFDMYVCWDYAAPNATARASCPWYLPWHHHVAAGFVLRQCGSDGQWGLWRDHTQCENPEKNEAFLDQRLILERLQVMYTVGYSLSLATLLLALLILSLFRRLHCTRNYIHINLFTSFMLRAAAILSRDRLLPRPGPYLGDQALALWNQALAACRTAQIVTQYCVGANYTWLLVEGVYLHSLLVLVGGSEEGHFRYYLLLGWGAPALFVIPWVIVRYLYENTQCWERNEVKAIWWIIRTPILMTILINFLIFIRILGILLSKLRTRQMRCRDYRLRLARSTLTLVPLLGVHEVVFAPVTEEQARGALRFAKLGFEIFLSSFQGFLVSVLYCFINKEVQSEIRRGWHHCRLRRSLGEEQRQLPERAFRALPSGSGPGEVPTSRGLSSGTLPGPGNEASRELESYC
Method: The in vitro functional activity of compounds towards human GIP receptor can also be determined in HEK-293 cells transiently expressing the receptor. On the day of the assay, cells were resuspended in HBSS buffer (Gibco, 14025-50) supplemented with 20 mM HEPES (Gibco, 15630-106), 0,1% Pluronic F-68 (Gibco, 24040-032) and 0,1% casein (Sigma, C4765), and plated in 384-well plates at a density of 5000 cells/well. The GIP peptide analogues of the present disclosure were diluted in HBSS buffer supplemented with 20 mM HEPES, 0,1% pluronic, 0,1% casein and 500 uM IBMX. […] The resulting decrease in intracellular cAMP was quantitatively determined using the CisBio cAMP Dynamic 2 HTRF Assay Kit. The assay is based on a competition between native cAMP produced by cells and cAMP labeled with the dye d2 for binding to a cryptate labeled antibody. The specific signal (i.e. energy transfer signal) is inversely proportional to the concentration of cAMP in the sample.
The cAMP-d2 conjugate and the antibody anti-cAMP-Cryptate, both diluted in lysis buffer provided in the kit, were added to the cells according to the manufacturer's protocol. The resulting competitive assay was incubated for 60 minutes at room temperature, and the signal was detected by using a PerkinElmer Envision® instrument with excitation at 320 nm and emission at 665 nm and 620 nm. The HTRF ratio (emission at 665 nm/620 nm*10,000) is inversely proportional to the amount of cAMP present and is converted to nM cAMP per well using a cAMP standard curve. The dose-response curves were fitted using the non-linear regression analysis (four-logistic parameter equation) in GraphPad Prism, whereby pIC50 values were estimated.

human GIP receptor [2] = biological target: T1, human GIP receptor; assay: cAMP agonism (CisBio cAMP Dynamic 2 HTRF assay)
Method: To test for agonistic properties at the GIP receptor, compounds were diluted and added to cells as described above and incubated for 30 min at 37° C. The resulting increase in intracellular cAMP was determined using the CisBio cAMP Dynamic 2 HTRF Assay Kit as described above.

human GIP receptor [3] = biological target: T1, human GIP receptor; assay: cAMP accumulation, agonism (DiscoveRx HitHunter cAMP XS assay); design: host or cells: COS-7 (transient, calcium phosphate; pCMV-Script vector)
Method: Transient transfected COS-7 cells expressing the human GIP receptor were seeded in white 96-well plates with a density of 3.5*10^4/well. The day after, the cells were washed twice with Hepes buffered saline (HBS) buffer and incubated with HBS and 1 mM 3-isobutyl-1-methylxanthine (IBMX) for 30 min at 37° C. To test for agonistic properties, ligands were added and incubated for 30 min at 37° C. In order to test for antagonistic properties, the cells were preincubated with the antagonists for 10 min prior to the addition of the agonist and subsequent incubated for 20 additional min. The HitHunter™ cAMP XS assay (DiscoveRx) was carried out according to the manufacturer's instructions.
In order to develop a GIP receptor antagonist with improved antagonistic properties, individual amino acid substitutions were conducted on GIP(3-30)NH2 and in particular at positions: 16, 18, 30 or 3, 16, 18, 30. The obtained peptides were lipidated at position 18 directly or via a linker. Both the agonistic and antagonistic profiles of the compounds were tested in cAMP accumulation experiments done in transiently transfected COS-7 cells expressing the human GIP receptor. To investigate if these mutated analogues still retained their antagonistic properties, their ability to inhibit a GIP-mediated cAMP response corresponding to 50-80% of maximum activation was examined.

[4] = HEK293, read-out: cAMP agonism, % Efficacy, Table 1C, HEK-293 cells
[5] = COS-7, read-out: cAMP agonism, Emax
[6] = HEK293, Table 1C, HEK-293 cells, read-out: cAMP agonism, % Efficacy
[7] = Table 1B, DiscoveRx, COS-7 cells, read-out: cAMP agonism, Emax

SMILES	Emax (human GIP receptor [2]; [4])	Emax (human GIP receptor [3]; [5])	Emax (human GIP receptor [2]; [6])	Emax (human GIP receptor [3]; [7])	other results
CC[C@H](C)[C@H](NC(=O)[C@H](CO)NC(=O)[C@H](Cc1ccc(O)cc1)NC(=O)[C@H](CC(=O)O)NC(=O)[C@H](CO)NC(=O)[C@@H](NC(=O)[C@H](Cc1ccccc1)NC(=O)[C@@H](N)[C@@H](C)O)[C@@H](C)CC)C(=O)N[C@@H](C)C(=O)N[C@@H](CC(C)C)C(=O)N[C@@H](CC(=O)O)C(=O)N[C@@H](CCCNC(=N)N)C(=O)N[C@H](C(=O)N[C@@H](CCCCNC(=O)CC[C@H](NC(=O)CCCCCCCCCCCCCCC(=O)O)C(=O)O)C(=O)N[C@@H](CCC(N)=O)C(=O)N[C@@H](CCC(N)=O)C(=O)N[C@@H](CC(=O)O)C(=O)N[C@@H](Cc1ccccc1)C(=O)N[C@H](C(=O)N[C@@H](CC(N)=O)C(=O)N[C@@H](Cc1c[nH]c2ccccc12)C(=O)N[C@@H](CC(C)C)C(=O)N[C@@H](CC(C)C)C(=O)N[C@@H](C)C(=O)N[C@@H](CCC(N)=O)C(=O)N[C@@H](CCCNC(=N)N)C(N)=O)C(C)C)[C@@H](C)CC [AT233] (HELM PEPTIDE1{T.F.I.S.D.Y.S.I.A.L.D.R.I.K.Q.Q.D.F.V.N.W.L.L.A.Q.R.[am]}|PEPTIDE2{[O=C(O)CCCCCCCCCCCCCCC(=O)[*:2]].[gGlu]}$PEPTIDE1,PEPTIDE2,14:R3-2:R2$$$V2.0; N-terminus assumed)	0%	28%	–	–	cAMP antagonism, % inhib (human GIP receptor [1]): 70%; IC50 (human GIP receptor [1]; cAMP antagonism, nM (IC50), agonist GIP1-42 at EC50): 34.2 nM
CC[C@H](C)[C@H](NC(=O)[C@H](CO)NC(=O)[C@H](Cc1ccc(O)cc1)NC(=O)[C@H](CC(=O)O)NC(=O)[C@H](CO)NC(=O)[C@@H](NC(=O)[C@H](Cc1ccccc1)NC(=O)[C@@H](NC(=O)CNC(=O)[C@@H]1CCCN1)[C@@H](C)O)[C@@H](C)CC)C(=O)N[C@@H](C)C(=O)N[C@@H](CCSC)C(=O)N[C@@H](CC(=O)O)C(=O)N[C@@H](CCCNC(=N)N)C(=O)N[C@H](C(=O)N[C@@H](CCCCNC(=O)COCCOCCNC(=O)CC[C@H](NC(=O)CCCCCCCCCCCCCCC(=O)O)C(=O)O)C(=O)N[C@@H](CCC(N)=O)C(=O)N[C@@H](CCC(N)=O)C(=O)N[C@@H](CC(=O)O)C(=O)N[C@@H](Cc1ccccc1)C(=O)N[C@H](C(=O)N[C@@H](CC(N)=O)C(=O)N[C@@H](Cc1c[nH]c2ccccc12)C(=O)N[C@@H](CC(C)C)C(=O)N[C@@H](CC(C)C)C(=O)N[C@@H](C)C(=O)N[C@@H](CCC(N)=O)C(=O)N[C@@H](CCCNC(=N)N)C(=O)O)C(C)C)[C@@H](C)CC [AT273] (HELM PEPTIDE1{P.G.T.F.I.S.D.Y.S.I.A.M.D.R.I.K.Q.Q.D.F.V.N.W.L.L.A.Q.R}|PEPTIDE2{[O=C(O)CCCCCCCCCCCCCCC(=O)[*:2]].[gGlu].[O=C(COCCOCCN[*:1])[*:2]]}$PEPTIDE1,PEPTIDE2,16:R3-3:R2$$$V2.0; N-terminus assumed)	0%	35%	–	–	–
CC[C@H](C)[C@H](NC(=O)[C@H](CO)NC(=O)[C@H](Cc1ccc(O)cc1)NC(=O)[C@H](CC(=O)O)NC(=O)[C@H](CO)NC(=O)[C@@H](NC(=O)[C@H](Cc1ccccc1)NC(=O)[C@@H](NC(=O)CNC(=O)[C@@H](N)CCC(=O)O)[C@@H](C)O)[C@@H](C)CC)C(=O)N[C@@H](C)C(=O)N[C@@H](CCSC)C(=O)N[C@@H](CC(=O)O)C(=O)N[C@@H](CCCCN)C(=O)N[C@H](C(=O)N[C@@H](CCCCNC(=O)CCCCCCCCCCCCCCC(=O)O)C(=O)N[C@@H](CCC(N)=O)C(=O)N[C@@H](CCC(N)=O)C(=O)N[C@@H](CC(=O)O)C(=O)N[C@@H](Cc1ccccc1)C(=O)N[C@H](C(=O)N[C@@H](CC(N)=O)C(=O)N[C@@H](Cc1c[nH]c2ccccc12)C(=O)N[C@@H](CC(C)C)C(=O)N[C@@H](CC(C)C)C(=O)N[C@@H](C)C(=O)N[C@@H](CCC(N)=O)C(=O)N[C@@H](CCC(=O)O)C(N)=O)C(C)C)[C@@H](C)CC [AT477] (H-EGTFISDYSIAMDKIK(C16 diacid)QQDFVNWLLAQE-NH2; N-terminus assumed)	0%	–	–	–	cAMP agonism, Emax (human GIP receptor [3]; Table 1B, DiscoveRx, COS-7 cells): No Agonism
CC[C@H](C)[C@H](NC(=O)[C@H](CO)NC(=O)[C@H](Cc1ccc(O)cc1)NC(=O)[C@H](CCC(=O)O)NC(=O)[C@H](CO)NC(=O)[C@@H](NC(=O)[C@H](Cc1ccccc1)NC(=O)[C@@H](NC(=O)CNC(=O)[C@@H](N)CCC(=O)O)[C@@H](C)O)[C@@H](C)CC)C(=O)N[C@@H](C)C(=O)N[C@@H](CCSC)C(=O)N[C@@H](CCC(=O)O)C(=O)N[C@@H](CCCCN)C(=O)N[C@H](C(=O)N[C@@H](CCCCNC(=O)CCCCCCCCCCCCCCC(=O)O)C(=O)N[C@@H](CCC(N)=O)C(=O)N[C@@H](CCC(N)=O)C(=O)N[C@@H](CCC(=O)O)C(=O)N[C@@H](Cc1ccccc1)C(=O)N[C@H](C(=O)N[C@@H](CCC(N)=O)C(=O)N[C@@H](Cc1c[nH]c2ccccc12)C(=O)N[C@@H](CC(C)C)C(=O)N[C@@H](CC(C)C)C(=O)N[C@@H](C)C(=O)N[C@@H](CCC(N)=O)C(=O)N[C@@H](CCCCN)C(N)=O)C(C)C)[C@@H](C)CC [AT482] (H-EGTFISEYSIAMEKIK(C16 diacid)QQEFVQWLLAQK-NH2; N-terminus assumed)	–	–	0%	10%	–
CC[C@H](C)[C@H](NC(=O)[C@H](Cc1ccccc1)NC(=O)[C@H](C)NC(=O)CNC(=O)[C@@H](N)CCC(=O)O)C(=O)N[C@@H](CO)C(=O)N[C@@H](CC(=O)O)C(=O)N[C@@H](Cc1ccc(O)cc1)C(=O)N[C@@H](C)C(=O)N[C@@H](C)C(=O)N[C@@H](C)C(=O)N[C@@H](CCSC)C(=O)N[C@@H](CC(=O)O)C(=O)N[C@@H](CCCCN)C(=O)N[C@H](C(=O)N[C@@H](CCCCNC(=O)CCCCCCCCCCCCCCC(=O)O)C(=O)N[C@@H](CCC(N)=O)C(=O)N[C@@H](CCC(N)=O)C(=O)N[C@@H](CC(=O)O)C(=O)N[C@@H](Cc1ccccc1)C(=O)N[C@H](C(=O)N[C@@H](C)C(=O)N[C@@H](Cc1c[nH]c2ccccc12)C(=O)N[C@@H](CC(C)C)C(=O)N[C@@H](CC(C)C)C(=O)N[C@@H](C)C(=O)N[C@@H](CCC(N)=O)C(=O)N[C@@H](CCCCN)C(N)=O)C(C)C)[C@@H](C)CC [AT483] (H-EGAFISDYAAAMDKIK(C16 diacid)QQDFVAWLLAQK-NH2; N-terminus assumed)	–	–	0%	8%	–
